Holding throughout (type): binding
One experiment deals with T1, α-chymotrypsin (Bos taurus, UniProt P00766).
T1 construct: from bovine pancreas, Type II
Briefly: […] NMR chemical shift titration; waterLOGSY titration.

For experiment [1], the target named is T2, bovine serum albumin (BSA) (Bos taurus, UniProt P02769).
T2 construct: gene ALB
Briefly: waterLOGSY NMR titration ([…] BSA).

Experiment [2] addresses T3, human serum albumin (HSA) (Homo sapiens, UniProt P02768).
T3 construct: gene ALB
The experiment in a line: waterLOGSY NMR titration ([…] HSA, […] s mixing time). The following applies: read-out: KD^obs/μM / 25 μM HSA.

T3 sequence (P02768 25-609): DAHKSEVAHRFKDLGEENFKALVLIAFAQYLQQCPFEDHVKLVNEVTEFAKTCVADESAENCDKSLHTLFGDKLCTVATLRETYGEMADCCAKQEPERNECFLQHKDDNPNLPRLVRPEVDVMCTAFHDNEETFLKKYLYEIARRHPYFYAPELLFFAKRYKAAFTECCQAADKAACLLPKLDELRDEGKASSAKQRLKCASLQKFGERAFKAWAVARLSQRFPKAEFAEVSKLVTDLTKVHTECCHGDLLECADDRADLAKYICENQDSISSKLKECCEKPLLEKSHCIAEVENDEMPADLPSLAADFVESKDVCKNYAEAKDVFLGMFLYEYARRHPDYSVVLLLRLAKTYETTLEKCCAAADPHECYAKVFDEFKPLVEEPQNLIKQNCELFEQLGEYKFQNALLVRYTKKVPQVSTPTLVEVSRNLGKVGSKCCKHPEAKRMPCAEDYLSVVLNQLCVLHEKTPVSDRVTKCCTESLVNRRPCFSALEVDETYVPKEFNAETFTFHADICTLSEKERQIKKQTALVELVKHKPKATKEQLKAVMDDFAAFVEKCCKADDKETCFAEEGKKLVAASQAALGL
T2 sequence (P02769 25-607): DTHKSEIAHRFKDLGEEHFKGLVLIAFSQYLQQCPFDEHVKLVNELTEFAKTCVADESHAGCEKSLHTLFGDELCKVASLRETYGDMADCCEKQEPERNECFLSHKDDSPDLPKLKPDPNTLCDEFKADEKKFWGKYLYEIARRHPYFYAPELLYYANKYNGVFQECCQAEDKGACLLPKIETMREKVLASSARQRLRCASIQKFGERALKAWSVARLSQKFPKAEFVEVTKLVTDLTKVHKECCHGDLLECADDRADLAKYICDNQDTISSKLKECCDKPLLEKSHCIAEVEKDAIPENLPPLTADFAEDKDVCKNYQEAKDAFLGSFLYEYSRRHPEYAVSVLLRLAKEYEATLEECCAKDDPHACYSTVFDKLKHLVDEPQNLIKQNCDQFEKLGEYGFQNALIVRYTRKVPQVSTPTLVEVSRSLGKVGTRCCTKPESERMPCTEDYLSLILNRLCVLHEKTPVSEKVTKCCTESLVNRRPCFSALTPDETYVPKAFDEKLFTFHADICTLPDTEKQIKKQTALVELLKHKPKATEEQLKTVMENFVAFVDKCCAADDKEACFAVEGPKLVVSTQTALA

`OB(O)c1cccc(F)c1` [3-Fluorophenylboronic acid]: the Kd on α-chymotrypsin was found to be 630 µM.

Consider `N[C@@H](Cc1c[nH]c2ccccc12)C(=O)O` [L-tryptophan], for which the Kd is roughly 120 µM in experiment [1] and 185 ± 50 µM in experiment [2].
